Measured values reported in patent US10000791B2, “Measurement method for human pancreatic lipase activity” (ASAHI KASEI PHARMA CORPORATION, priority 2013, dated 2018).
One block for each compound: values may come before it.

Assays:
Format in all cases: biochemical
[1] = test system: human pancreatic lipase; experiment: pH dependence of human pancreatic lipase activity in the presence of bile acids (diglyceride substrate, UV method); details: for pH for giving a maximum value of the activity (apparent optimum pH) / degree of the activation of human pancreatic lipase: pooled serum; for pH for giving a maximum value of the activity (apparent optimum pH): non-conjugated bile acid singly, pH 7.2-8.5; for degree of the activation of human pancreatic lipase: conjugated bile acid singly, 40 mmol/L in R-1
Experimental: After weighing 1,2-dioleoyl glycerol (DODG) (manufactured by Nippon Fine Chemical Co., Ltd.) to attain a concentration of 9.32 mmol/L when dissolved, 1% polyoxyethylene (10) nonyl phenyl ether (NPE) (manufactured by Wako Pure Chemical Industries Ltd.) containing 1.66 mmol/L of MES (manufactured by Dojindo Laboratories) was added thereto to be dissolved therein by stirring at 37° C. for 2 hours, and the resultant was allowed to stand still in ice for 2 hours or more. The thus obtained solution was used as a substrate original liquid.
The above-described diglyceride original liquid was used for preparing a “substrate stock solution” having the following composition:
A “first reaction solution (R-1)” having the following composition was prepared:
A “second reaction solution (R-2)” having the following composition was prepared:
A “second reaction solution (R-2) for sample blank” having the following composition was prepared:
(§1) A mixture of the substrate stock solution and the R-1 in a proportion of 1:2 was used as a first reagent. The R-2 was directly used as a second reagent. As a sample, pooled serum or a control sample (a control containing a pancreatic lipase) was used. A proportion in amount among the sample, the first reagent and the second reagent was set as sample:first reagent:second reagent of 0.01 ml:0.18 ml:0.06 ml. The sample was added to the first reagent, the resultant mixture was heated at 37° C. for 5 minutes, the second reagent was added thereto, and a change rate of an absorbance at 340 nm based on reduced NADP was obtained at 37° C. from 3 minutes after the addition of the second reagent to 4 minutes after the addition, and then, the lipase activity was calculated by using a molecular extinction coefficient of 6300 L/mol·cm of the reduced NADP. Besides, as a sample blank, saline was used instead of a sample, an absorbance was measured by using the reagent for sample blank obtained by removing MGLPII from the second reagent, and a difference between the thus measured two values was defined as an enzyme activity value. For the measurement, Hitachi automatic analyzer Model H7170 or H7080 was used.
As a conjugated bile acid to be added to the R-1, sodium taurodeoxycholate (NaTDCA), sodium glycodeoxycholate (NaGDCA), sodium glycochenodeoxycholate (NaGCDCA), sodium taurochenodeoxycholate (NaTCDCA), sodium glycocholate (NaGCA), sodium taurocholate (NaTCA) and sodium tauroursodeoxycholate (NaTUDCA) all in a concentration of 40 mmol/L were selected, the R-1 was adjusted, by using BES (manufactured by Dojindo Laboratories) respectively to pH 6.8, 7.0, 7.2, 7.4, 7.8, and 8.0, and the human pancreatic lipase activity was measured by using these. The pH of the R-2 was adjusted to be equal to that of the R-1.
It is noted that the concentration of each non-conjugated bile acid was set to be 24 mmol/L in the R-1. Besides, BES was used for adjusting pH to 7.2, 7.6, 7.8 and 8.0, and Bicine was used for adjusting pH to 8.2 and 8.5.
(§2) Similarly to Example 1, a mixture of the substrate stock solution and the R-1 in a proportion of 1:2 was used as a first reagent. Except for this, the measurement was performed in the same manner as in Example 1.
Besides, NaTCA was also combined with a conjugated bile acid, NaTDCA, to examine the pH for giving a maximum value of the human pancreatic lipase activity (the apparent optimum pH). It is noted that a BES buffer was used for adjusting pH to 6.9, 7.2 and 7.7, and a Bicine buffer was used for adjusting pH to 7.95 and 8.2. In each of the combinations of NaGCA/NaDCA, NaTCA/NaDCA, NaTUDCA/NaDCA and NaTCA/NaTDCA, the concentration of each bile acid was set to 20 mmol/L in the R-1. With respect to the combination of NaTCA and NaTDCA, a concentration of 40 mmol/L of NaTDCA was used as a control.
The compositions of the reagents and the measurement operation were the same as those of Example 2.

[2] = test system: human pancreatic lipase; experiment: lipase activity measured in control, normal and heparin-administered samples with each reagent (1,2-dioleoyl glycerol, UV method; Liquitech Lipase Color II for verification); design: lipase activity relative to (1) comparative example NaDCA (Table 1): concentration or dose not given beside the values; details: for lipase activity (Table 1): NaDCA pH 8.15, other bile salts pH 7.0; for lipase activity relative to (1) comparative example NaDCA (Table 1): pH 7.0; for lipase activity (Table 2): comparative example pH 8.15, present example pH 7.1, bile acid 40 mmol/L in R-1
Experimental: as §1, §2
A commercially available reagent for a resorufin colorimetric method, “Liquitech Lipase Color II” manufactured by Roche Diagnostics using 1,2-O-dilauryl-rac-glycerol-3-glutaric acid-(6-methylresorufin)ester (DGGR), which is regarded not to be influenced by a non-pancreatic lipase, such as a lipoprotein lipase or a hepatic lipase, appearing in blood due to administration of heparin, was used for verifying the effect of the present example. “Liquitech Lipase Color II” was used in accordance with the package insert, and a special calibrator was used for calculating the enzyme activity. […] The concentration of each bile acid used in the present example was set to be the same as that in the comparative example.
As samples, a control, non-heparin-administered samples (normal samples), and heparin-administered samples were used.
The compositions of the reagents were the same as those of Example 2. As a comparative example, NaDCA (in a concentration of 40 mmol/L in the R-1) was used as the bile acid, and the reaction solution was adjusted to pH 8.15 (by the Bicine buffer) for measuring a heparin-administered sample.
It is noted that CRM-001b containing a human pancreatic recombinant lipase dissolved not in distilled water but in a pooled serum was used as the calibrator to calculate the lipase activity.
As a bile acid of the present example and a reference example, NaTDCA was selected, and the pH dependence with the pH of a reaction solution changed in a range of 6.2 to 7.6 was examined. It is noted that a case of pH 7.6 was used as the reference example. An MES buffer was used for adjusting pH to 6.2 and 6.4, and the BES buffer was used for adjusting the other pHs. As samples, (six) control samples (controls each containing a pancreatic lipase) and (nine) heparin-administered samples were used. As a comparative example, NaDCA (in a concentration of 40 mmol/L in the R-1) was used as the bile acid, and a reaction solution having pH 8.15 (the Bicine buffer) was used. Besides, “Liquitech Lipase Color II” manufactured by Roche Diagnostics was used for verifying the effect of the present example.

[3] = test system: human pancreatic lipase; experiment: pH dependence of human pancreatic lipase activity in the presence of bile acids (diglyceride substrate, UV method); details: human pooled serum; pH changed between 7.4 and 8.4 (Example 12)
Target sequence in this assay (P16233 17-465): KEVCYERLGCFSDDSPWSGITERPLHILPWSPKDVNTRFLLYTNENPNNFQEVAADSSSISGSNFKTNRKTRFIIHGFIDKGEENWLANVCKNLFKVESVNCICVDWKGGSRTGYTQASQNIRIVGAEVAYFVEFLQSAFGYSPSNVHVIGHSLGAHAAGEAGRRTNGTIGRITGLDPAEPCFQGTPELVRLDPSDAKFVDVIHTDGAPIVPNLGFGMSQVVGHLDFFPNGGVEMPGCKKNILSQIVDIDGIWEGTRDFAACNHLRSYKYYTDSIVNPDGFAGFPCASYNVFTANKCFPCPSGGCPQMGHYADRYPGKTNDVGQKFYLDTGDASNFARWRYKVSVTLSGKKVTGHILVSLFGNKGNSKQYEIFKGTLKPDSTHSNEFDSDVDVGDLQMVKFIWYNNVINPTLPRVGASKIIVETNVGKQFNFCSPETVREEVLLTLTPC
Target sequence in this assay (P02703 23-112 partner): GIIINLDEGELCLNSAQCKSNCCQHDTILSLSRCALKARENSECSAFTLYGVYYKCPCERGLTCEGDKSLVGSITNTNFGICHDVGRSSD

pH for giving a maximum value of the activity (apparent optimum pH) ([1]; 24 mmol/L in R-1): about 7.7
Compound: C[C@H](CCC(=O)[O-])[C@H]1CC[C@H]2[C@@H]3[C@H](O)C[C@@H]4C[C@H](O)CC[C@]4(C)[C@H]3CC[C@]12C.[Na+] [NaCDCA, sodium chenodeoxycholate]

degree of the activation of human pancreatic lipase [1]: below detection limit
Compound: C[C@H](CCC(=O)NCC(=O)[O-])[C@H]1CC[C@H]2[C@@H]3[C@H](O)C[C@@H]4C[C@H](O)CC[C@]4(C)[C@H]3C[C@H](O)[C@]12C.[Na+] [NaGCA, sodium glycocholate]

lipase activity (Table 2) ([2]; sample Heparin 1): 54.5 U/L
lipase activity (Table 2) ([2]; sample Heparin 2): 31.7 U/L
lipase activity (Table 2) ([2]; sample Heparin 3): 48.1 U/L
Compound: C[C@H](CCC(=O)NCCS(=O)(=O)[O-])[C@H]1CC[C@H]2[C@@H]3[C@@H](O)C[C@@H]4C[C@H](O)CC[C@]4(C)[C@H]3CC[C@]12C.[Na+] [NaTCDCA, sodium taurochenodeoxycholate]

Continued, compound first:

Compound: C[C@H](CCC(=O)[O-])[C@H]1CC[C@H]2[C@@H]3[C@H](O)C[C@@H]4C[C@H](O)CC[C@]4(C)[C@H]3C[C@H](O)[C@]12C.[Na+] [NaCA, sodium cholate]
signal of human pancreatic lipase activity ([1]; 24 mmol/L in R-1, compared with NaDCA): merely a slight signal

Compound: C[C@H](CCC(=O)NCC(=O)[O-])[C@H]1CC[C@H]2[C@@H]3CC[C@@H]4C[C@H](O)CC[C@]4(C)[C@H]3C[C@H](O)[C@]12C.[Na+] [NaGDCA, sodium glycodeoxycholate]
lipase activity (Table 1) ([2]; Normal sample 1): 47.1 U/L
lipase activity relative to (1) comparative example NaDCA (Table 1) ([2]; Normal sample 1): 120.6%
lipase activity (Table 1) ([2]; Normal sample 2): 91.5 U/L
lipase activity relative to (1) comparative example NaDCA (Table 1) ([2]; Normal sample 2): 96.3%
lipase activity (Table 1) ([2]; Normal sample 3): 49.7 U/L
lipase activity relative to (1) comparative example NaDCA (Table 1) ([2]; Normal sample 3): 106.5%
lipase activity (Table 1) ([2]; Normal sample 4): 32.9 U/L
lipase activity relative to (1) comparative example NaDCA (Table 1) ([2]; Normal sample 4): 75.8%
lipase activity (Table 1) ([2]; Normal sample 5): 36.2 U/L
lipase activity relative to (1) comparative example NaDCA (Table 1) ([2]; Normal sample 5): 89.0%
lipase activity (Table 1) ([2]; sample Heparin 1): 39.1 U/L
lipase activity relative to (1) comparative example NaDCA (Table 1) ([2]; sample Heparin 1): 50.9%
lipase activity (Table 1) ([2]; sample Heparin 2): 47.5 U/L
lipase activity relative to (1) comparative example NaDCA (Table 1) ([2]; sample Heparin 2): 54.8%
lipase activity (Table 1) ([2]; sample Heparin 3): 36.9 U/L
lipase activity relative to (1) comparative example NaDCA (Table 1) ([2]; sample Heparin 3): 32.7%
lipase activity (Table 1) ([2]; sample Heparin 4): 28.2 U/L
lipase activity relative to (1) comparative example NaDCA (Table 1) ([2]; sample Heparin 4): 27.8%
lipase activity (Table 1) ([2]; sample Heparin 5): 23.8 U/L
lipase activity relative to (1) comparative example NaDCA (Table 1) ([2]; sample Heparin 5): 34.8%
lipase activity (Table 1) ([2]; sample Heparin 6): 28.9 U/L
lipase activity relative to (1) comparative example NaDCA (Table 1) ([2]; sample Heparin 6): 41.8%
lipase activity (Table 1) ([2]; sample Heparin 7): 58.0 U/L
lipase activity relative to (1) comparative example NaDCA (Table 1) ([2]; sample Heparin 7): 42.0%
lipase activity (Table 1) ([2]; sample Heparin 8): 43.9 U/L
lipase activity relative to (1) comparative example NaDCA (Table 1) ([2]; sample Heparin 8): 34.8%
lipase activity (Table 1) ([2]; sample Heparin 9): 81.0 U/L
lipase activity relative to (1) comparative example NaDCA (Table 1) ([2]; sample Heparin 9): 48.0%
lipase activity (Table 1) ([2]; sample PRECINORM): 52.2 U/L
lipase activity relative to (1) comparative example NaDCA (Table 1) ([2]; sample PRECINORM): 102.4%
lipase activity (Table 1) ([2]; sample PRECIPATH): 124.6 U/L
lipase activity relative to (1) comparative example NaDCA (Table 1) ([2]; sample PRECIPATH): 97.4%

Compound: C[C@H](CCC(=O)NCCS(=O)(=O)O)[C@H]1CC[C@H]2[C@@H]3[C@H](O)C[C@@H]4C[C@H](O)CC[C@]4(C)[C@H]3C[C@H](O)[C@]12C [NaTCA, sodium taurocholate]
degree of the activation of human pancreatic lipase [1]: below detection limit

Compound: C[C@H](CCC(=O)NCCS(=O)(=O)[O-])[C@H]1CC[C@H]2[C@@H]3[C@@H](O)C[C@@H]4C[C@H](O)CC[C@]4(C)[C@H]3CC[C@]12C.[Na+] [NaTUDCA, sodium tauroursodeoxycholate]
degree of the activation of human pancreatic lipase [1]: below detection limit

Compound: sodium deoxycholate [NaDCA]
pH for giving a maximum value of the activity (apparent optimum pH) ([1]; 24 mmol/L in R-1): about 8.2
lipase activity (Table 1) ([2]; Normal sample 1): 39.1 U/L
lipase activity (Table 1) ([2]; Normal sample 2): 95.0 U/L
lipase activity (Table 1) ([2]; Normal sample 3): 46.6 U/L
lipase activity (Table 1) ([2]; Normal sample 4): 43.5 U/L
lipase activity (Table 1) ([2]; Normal sample 5): 40.7 U/L
lipase activity (Table 1) ([2]; sample Heparin 1): 76.8 U/L
lipase activity (Table 1) ([2]; sample Heparin 2): 86.7 U/L
lipase activity (Table 1) ([2]; sample Heparin 3): 112.9 U/L
lipase activity (Table 1) ([2]; sample Heparin 4): 101.4 U/L
lipase activity (Table 1) ([2]; sample Heparin 5): 68.5 U/L
lipase activity (Table 1) ([2]; sample Heparin 6): 69.2 U/L
lipase activity (Table 1) ([2]; sample Heparin 7): 138.3 U/L
lipase activity (Table 1) ([2]; sample Heparin 8): 126.0 U/L
lipase activity (Table 1) ([2]; sample Heparin 9): 168.8 U/L
lipase activity (Table 1) ([2]; sample PRECINORM): 51.0 U/L
lipase activity (Table 1) ([2]; sample PRECIPATH): 128.0 U/L
pH for giving a maximum value of the human pancreatic lipase activity [3]: about 8.2
